Assay [1] deals with T1, recombinant human arginase 1 (Homo sapiens, UniProt P05089).
T1 construct: purchased Biolegend 552502
T1 sequence (P05089 1-322): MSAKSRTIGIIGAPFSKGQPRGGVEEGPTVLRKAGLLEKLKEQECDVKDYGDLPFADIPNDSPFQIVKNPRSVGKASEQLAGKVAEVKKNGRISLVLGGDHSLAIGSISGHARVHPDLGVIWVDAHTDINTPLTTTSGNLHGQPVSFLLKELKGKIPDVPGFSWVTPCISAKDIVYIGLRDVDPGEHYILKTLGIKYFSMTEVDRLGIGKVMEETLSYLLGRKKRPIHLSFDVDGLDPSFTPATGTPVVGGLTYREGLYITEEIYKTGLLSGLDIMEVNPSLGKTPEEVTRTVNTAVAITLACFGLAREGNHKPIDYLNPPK
The assay can be described thus: Human arginase activity assay (urea measurement), arginase 1. Format: biochemical. As to conditions: recombinant human arginase 1, pH 7.4, 37° C., 60 min; * = value for the most potent diastereoisomer or the mixture of diastereoisomers; read-out: Activity Class (ARG I). The method in brief:
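Arginase activity was measured as urea formed from L-arginine over 60 min at 37 °C. Reaction stopped with oPA/NED acidic reagent and absorbance read at 530 nm after 20 min colour development. Values were background-subtracted and normalised to no-compound activity, and IC50 was derived from percent-inhibition concentration-response regression.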

Assay [2] concerns the target T2, recombinant human arginase 2 (Homo sapiens, UniProt P78540).
T2 construct: made in house; host or cells: CHO
T2 sequence (P78540 23-354): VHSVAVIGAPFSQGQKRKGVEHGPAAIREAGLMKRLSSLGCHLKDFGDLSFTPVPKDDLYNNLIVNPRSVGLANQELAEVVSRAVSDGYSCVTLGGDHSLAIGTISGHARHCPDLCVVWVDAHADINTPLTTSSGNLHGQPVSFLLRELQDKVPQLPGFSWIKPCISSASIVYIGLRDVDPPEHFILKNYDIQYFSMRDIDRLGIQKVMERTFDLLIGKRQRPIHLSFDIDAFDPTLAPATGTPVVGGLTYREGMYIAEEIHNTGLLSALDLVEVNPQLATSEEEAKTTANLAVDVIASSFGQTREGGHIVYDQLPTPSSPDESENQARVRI
The assay can be described thus: Human arginase activity assay (urea measurement), arginase 2. The format is biochemical. The settings on record: for selected examples class estimated from % of inhibition at 1 μM and 100 μM, * = most potent diastereoisomer or mixture of diastereoisomers, read-out: Activity Class (ARG II). The method in brief:
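Recombinant CHO-expressed human arginase 2 converted 20 mM L-arginine with 150 μM MnCl2 in phosphate buffer pH 7.4 for 60 min at 37 °C. Urea was measured colorimetrically at 530 nm after background subtraction, and IC50 fitted. Some compounds were classed by % inhibition at 1 μM and 100 μM.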

Assay [3] has as its target T3, intracellular arginase in macrophages isolated from murine bone marrow (BMDM) (Mus musculus, UniProt Q61176).
T3 construct: endogenous in cells; host or cells: primary bone marrow derived macrophages from Balb/c mice, M-CSF and IL-4 treated
T3 sequence (Q61176 1-323): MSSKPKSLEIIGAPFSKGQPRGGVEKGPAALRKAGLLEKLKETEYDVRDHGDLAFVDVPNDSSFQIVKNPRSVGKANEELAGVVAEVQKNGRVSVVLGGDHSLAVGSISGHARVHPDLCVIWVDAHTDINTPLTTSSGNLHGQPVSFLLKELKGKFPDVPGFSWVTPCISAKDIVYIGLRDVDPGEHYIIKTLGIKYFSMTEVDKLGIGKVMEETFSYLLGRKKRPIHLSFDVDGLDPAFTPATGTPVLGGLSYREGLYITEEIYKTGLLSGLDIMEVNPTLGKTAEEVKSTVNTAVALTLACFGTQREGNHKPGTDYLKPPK
The assay can be described thus: Cell-based assay: intracellular arginase in bone marrow derived macrophages (BMDM), urea level. The arrangement: species or system Balb/c mice. As to conditions: murine BMDM with M-CSF and IL-4, urea measured 24 hours after compound; * = most potent diastereoisomer or mixture of diastereoisomers; read-out: Activity Class (BMDM). The protocol: Efficacy of Selected Examples Towards Intracellular Arginase in Macrophages Isolated from Murine Bone Marrow—Bone Marrow Derived Macrophages (BMDM)
Materials & Methods: The assay was performed according to modified literature protocol modification (Pineda-Torra I et al., Methods Mol Biol. 2015; 1339:101-9. Mia S et al. Scand J Immunol. 2014 May; 79(5):305-14). The femurs and tibias were isolated from Balb/c mice. Bones were cleaned from all attached tissues by using sterile swab without affecting the bone structure. Bones were sterilized by immersion in 70% ethanol for 5 min and then rinsed in PBS. The sides of the bones were cut off and flush with cold sterile PBS by using 26-G needle S into a 50 mL sterile tube with a cell strainer (Falcon™, Cat. No. U00149), until bone cavity appeared white. Then the cells were centrifuged (5 min at 500×G, 4° C.), washed twice with PBS and counted. Cells were plated in Petri dish in density of 1×10^6/mL and cultured in DMEM (Gibco, Cat. No. 31331-029) with 10% FBS, 1% pen-strep and 50 ng/mL M-CSF (PeproTech, Cat. No. 315-02), (37° C., 5% CO2). After five days cells were subcultured into P96 plate (BD, Cat. No. 353072) in density of 64 000 cells/well in medium supplemented with 50 ng/mL M-CSF and 20 ng/mL IL-4 (Biomibo Cat. No. 214-1). One day later exemplary compounds (dissolved in PBS) were added in several different concentrations and 24 hours later the level of urea was measured in each well (Jung D et al., Clin Chem. 1975, 21(8):1136-40). The concentration of urea in the absence of any compound was considered as the maximum. The absorbance of cell culture media (background) was subtracted from all the values.
For selected examples the activity class for ARG2 was estimated based on % of inhibition for 1 μM and 100 μM concentration of tested compounds.

Structures can show the parent of a compound that is named as a salt.

Regarding `N[C@]1(C(=O)O)C[C@H](CCB(O)O)CC[C@H]1CN1CCc2ccccc2C1` (racemic) [Example 35, rac-(1R,2S,5R)-1-amino-5-(2-boronoethyl)-2-((3,4-dihydroisoquinolin-2(1H)-yl)methyl)cyclohexanecarboxylic acid dihydrochloride], the IC50 in assay [1] was 100 to 1000 nM; in assay [2] it was 1000 to 10000 nM; in assay [3] it was 10 to 100 µM.

Turning to `NC[C@@H]1C[C@@H](CCB(O)O)CC(N)(C(=O)O)C1` (mixture of isomers) [Example 54, rac-(3R,5R)-1-amino-3-(aminomethyl)-5-(2-boronoethyl)cyclohexanecarboxylic acid dihydrochloride], the values for the IC50 in assay [1], in assay [2] and in assay [3] were 100 to 1000 nM, 1000 to 10000 nM and 10 to 100 µM, respectively.

With `N[C@@]1(C(=O)O)COC[C@@H](CCB(O)O)C1` (racemic) [Example 61, rac-(3R,5S)-3-amino-5-(2-boronoethyl)tetrahydro-2H-pyran-3-carboxylic acid hydrochloride], the IC50 in assay [1] is 100 to 1000 nM; in assay [2] it was 1000 to 10000 nM; in assay [3] it was 1 to 10 µM.

Consider `NC1CCC(CCB(O)O)CC1(N)C(=O)O` (single isomer, unassigned) [Example 48, 1,2-diamino-5-(2-boronoethyl)cyclohexanecarboxylic acid dihydrochloride], for which the IC50 in assay [1] is 100 to 1000 nM; in assay [2] it was 100 to 1000 nM; in assay [3], 10 to 100 µM.

As to `CNC1(C(=O)O)C[C@H](CCB(O)O)CCC1CN` (single isomer, unassigned) [Example 68, dihydrochloride], the values for the IC50 in assay [1], in assay [2] and in assay [3] were 10000 to 100000 nM, 10000 to 100000 nM and 10 to 100 µM, respectively.

Regarding `N[C@@H](CCCCB(O)O)C(=O)O` [Comparative example 1, reference compound], the IC50 in assay [1] was 100 to 1000 nM; in assay [2], 1000 to 10000 nM; in assay [3], 1 to 10 µM.

Take `NC(CCCCB(O)O)(CCNCCCc1ccc(Cl)cc1Cl)C(=O)O` (stereo not drawn) [Comparative example 2, reference compound]: the IC50 in assay [1] was 1 to 100 nM; in assay [2] it was 100 to 1000 nM; in assay [3], 1 to 10 µM.

As for `N[C@@](CCCCB(O)O)(C(=O)O)C1CCN(Cc2ccc(Cl)c(Cl)c2)CC1` [Comparative example 3, reference compound], the IC50 in assay [1] was 1 to 100 nM; in assay [2] it was 100 to 1000 nM; in assay [3], 1 to 10 µM.

With `NCC1CCC(CCB(O)O)CC1(N)C(=O)O` (stereo not drawn) [Example 24, 1-Amino-2-(aminomethyl)-5-(2-boronoethyl)cyclohexane-1-carboxylic acid], the values for the IC50 in assay [1], in assay [2] and in assay [3] were 1 to 100 nM, 100 to 1000 nM and 10 to 100 µM, respectively.

As to `CN(C)C[C@@H]1CC[C@@H](CCB(O)O)C[C@]1(N)C(=O)O` [Example 38, (1R,2S,5R)-1-amino-5-(2-boronoethyl)-2-((dimethylamino)methyl)cyclohexanecarboxylic acid], the IC50 in assay [1] is 1 to 100 nM; in assay [2], 1 to 100 nM; in assay [3] it was 0.001 to 0.1 µM.

Regarding `CNC[C@@H]1CC[C@@H](CCB(O)O)C[C@]1(N)C(=O)O` [Example 39, (1R,2S,5R)-1-amino-5-(2-boronoethyl)-2-((methylamino)methyl)cyclohexanecarboxylic acid dihydrochloride], the figures for the IC50 in assay [1], in assay [2] and in assay [3] were 1 to 100 nM, 1 to 100 nM and 0.1 to 1 µM, respectively.

On to `CN(C)C[C@@H]1CC[C@@H](CCB2O[C@H]3C[C@H]4C[C@H](C4(C)C)[C@@]3(C)O2)C[C@]1(N)C(=O)O` [Example 44, (1R,2S,5R)-1-amino-2-((dimethylamino)methyl)-5-(2-((3aR,4R,6R,7aS)-3a,5,5-trimethylhexahydro-4,6-methanobenzo[d][1,3,2]dioxaborol-2-yl)ethyl)cyclohexane-1-carboxylic acid dihydrochloride], for which the IC50 was 1 to 100 nM in assay [1], 1 to 100 nM in assay [2] and 0.001 to 0.1 µM in assay [3].

As to `CC1(C)[C@H]2C[C@@H]3OB(CC[C@@H]4CC[C@@H](CN5CCCC5)[C@@](N)(C(=O)O)C4)O[C@]3(C)[C@@H]1C2` [Example 45, (1R,2S,5R)-1-amino-2-(pyrrolidin-1-ylmethyl)-5-(2-((3aR,4R,6R,7aS)-3a,5,5-trimethylhexahydro-4,6-methanobenzo[d][1,3,2]dioxaborol-2-yl)ethyl)cyclohexanecarboxylic acid dihydrochloride], the IC50 in assay [1] was 1 to 100 nM; in assay [2] it was 100 to 1000 nM; in assay [3] it was 0.001 to 0.1 µM.

Regarding `NC1(C(=O)O)C[C@H](CCB(O)O)CCC1CCN1CCCC1` (stereo partly drawn) [Example 46, (5R)-1-amino-5-(2-boronoethyl)-2-(2-(pyrrolidin-1-yl)ethyl)cyclohexanecarboxylic acid dihydrochloride], the IC50 is 1 to 100 nM in assay [1], 1 to 100 nM in assay [2] and 0.1 to 1 µM in assay [3].

Regarding `CC1(O)CCC(CCB(O)O)CC1(N)C(=O)O` (stereo not drawn) [Example 50, 1-amino-5-(2-boronoethyl)-2-hydroxy-2-methylcyclohexanecarboxylic acid hydrochloride], the IC50 is 100 to 1000 nM in assay [1], 100 to 1000 nM in assay [2] and 10 to 100 µM in assay [3].

Regarding `NC1(C(=O)O)CC(CCB(O)O)CC=C1Cc1ccc(Cl)cc1` (stereo not drawn) [Example 53, 1-amino-5-(2-boronoethyl)-2-(4-chlorobenzyl)cyclohex-2-enecarboxylic acid hydrochloride], the IC50 in assay [1] is 100 to 1000 nM; in assay [2], 1000 to 10000 nM; in assay [3], 1 to 10 µM.

Consider `NC1CC(CCB(O)O)CC(N)(C(=O)O)C1` (stereo not drawn) [Example 56, 1,3-diamino-5-(2-boronoethyl)cyclohexanecarboxylic acid dihydrochloride], for which the IC50 in assay [1] was 1000 to 10000 nM; in assay [2], 100 to 1000 nM; in assay [3] it was over 100 µM.

For the molecule `NC1CC(CCB(O)O)CC1(N)C(=O)O` (stereo not drawn) [Example 62, 1,2-diamino-4-(2-boronoethyl)cyclopentanecarboxylic acid dihydrochloride], the IC50 is 1000 to 10000 nM in assay [1], 100 to 1000 nM in assay [2] and 10 to 100 µM in assay [3].

For the molecule `CN(C)C1CC(CCB(O)O)CC(N)(C(=O)O)C1` (stereo not drawn) [Example 65, 1-amino-3-(2-boronoethyl)-5-(dimethylamino)cyclohexane-1-carboxylic acid dihydrochloride], the IC50 is 10000 to 100000 nM in assay [1], 10000 to 100000 nM in assay [2] and over 100 µM in assay [3].

Source of the values: US12053451B2, “Arginase inhibitors and their therapeutic applications” (OncoArendi Therapeutics S.A., priority 2016, dated 2024).
